This is an account of results in patent publication US20120214186A1, “METHODS AND COMPOSITIONS FOR DETECTING AND QUANTIFYING sAPPbeta” (priority 2006, published 2012).

Molecules are shown by their SMILES.

The IC50 is the concentration that gives 50% inhibition.

The target in data set [1] is T1, BACE1 (Homo sapiens, UniProt P56817).
T1 construct: expressed in transfected cells
In words: Cell-based BACE1 assay (sAPPβ ELISA-SEAP), SY5Y-BACEGFP-SEAPAPPwt stable cells. Particulars: 6 hours, 96-well; TAPI-2 100 mM, BACE inhibitor IV 5 mM, AEBSF 500 mM, Cpd E 20 nM. As for the experimental part:
[…] cells expressing BACEGFP and SEAPAPPwt were grown on standard cell culture plates in DMEM (Invitrogen) supplemented with 10% fetal bovine serum, 1% Pen/Strep/Glutamine, and 250 μg/ml zeocin. SEAPAPPwt is cleaved by BACE1 (β-secretase) as well as a secretase to release large extracellular fragments sAPPβ and sAPPα, respectively. Cell culture media containing these fragments was harvested and SEAP-sAPPβ was captured using 96-well plates coated with the sAPPβ specific antibody (sβwt). The ELISA plate was then incubated with the fluorescent alkaline phosphatase substrate 4-MUP (Sigma) at a final concentration of 30 μM (in 100 mM glycine, 1 mM MgCl2, 1 mM ZnCl2 at pH 9.8) for 1 hour before detection (excitation: 360 nm, emission: 449 nm).
SY5Y-BACEGFP-SEAPAPPwt stable cells were grown to 100% confluence on 96-well plates in quadruplicate and incubated for 6 hours with DMSO, TAPI-2 ([…]), RACE inhibitor IV ([…]), AEBSF ([…]), or Cpd E (20 nM) in […] of conditioned media (DMEM (invitrogen) supplemented with 10% fetal bovine serum, 1% Pen/Strep/Glutamine, and 250 μg/ml zeocin).
A sAPPβ ELISA-SEAR assay was conducted using […] of media.
Media was collected after 6 hrs incubation and […] was used in the BACE1 assay as described above.

The test system of data set [2] is SY5Y-BACEGFP-SEAPAPPwt stable cells. Particulars: at concentrations used; data not shown.
In data set [3] the target is T2, BACE1 (Mus musculus, UniProt P56818).
T2 construct: host or cells: mouse model of AD
T2 sequence (P56818 46-501): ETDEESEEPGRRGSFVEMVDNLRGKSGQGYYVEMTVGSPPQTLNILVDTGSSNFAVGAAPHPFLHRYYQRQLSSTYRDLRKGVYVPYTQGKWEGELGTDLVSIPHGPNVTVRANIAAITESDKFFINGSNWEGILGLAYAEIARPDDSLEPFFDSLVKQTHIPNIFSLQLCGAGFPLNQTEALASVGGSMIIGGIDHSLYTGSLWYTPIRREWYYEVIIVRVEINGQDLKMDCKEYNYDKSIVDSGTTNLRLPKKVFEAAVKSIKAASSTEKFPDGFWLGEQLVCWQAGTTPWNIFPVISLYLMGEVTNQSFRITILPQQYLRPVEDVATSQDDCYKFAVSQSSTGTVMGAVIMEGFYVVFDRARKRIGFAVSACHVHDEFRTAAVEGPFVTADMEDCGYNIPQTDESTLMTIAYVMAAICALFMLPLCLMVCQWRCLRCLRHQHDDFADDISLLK
Particulars: mouse model of AD; cited from earlier work.

For data set [4] the following is noted: p-glycoprotein inhibitor required to increase transport; cited from earlier work.
The next data set deals with HEK293-APPNFEV cells. The conditions noted are these: read-out: reported IC50; cited from earlier work.

T1 sequence (P56817 46-501): as the sequence (P56818 46-501) above, with S6P, I162V, I165L, T180S, A182V, V340I, A393L, H443Q counted along it

Take `NCCc1ccc(S(=O)(=O)F)cc1` [AEBSF]: at BACE1 [1], the “effect on sAPPβ” value was “dramatically reduced”. The cellular toxicity result in data set [2] is “do not exhibit significant cellular toxicity”.

`CC(C)C[C@H](CC(=O)NO)C(=O)N[C@H](C(=O)N[C@@H](C)C(=O)NCCN)C(C)(C)C` [TAPI-2]: at BACE1 [1], the “effect on sAPPβ” value is given as “no effect”.

For `CCNc1cc(C(=O)N[C@@H](Cc2ccccc2)[C@H](O)CNCc2cccc(C(F)(F)F)c2)c(F)c(N2CCCCS2(=O)=O)c1` [GSK188909], the in vivo efficacy entry on BACE1 [3] is recorded as “in vivo efficacy”. In data set [4], the brain penetration entry is recorded as “low brain penetration”.

Turning to `C[C@H](NC(=O)Cc1cc(F)cc(F)c1)C(=O)N[C@H]1N=C(c2ccccc2)c2ccccc2N(C)C1=O` [CpdE], the “effect on sAPPβ” value on BACE1 [1] is given as “no effect”.

For the compound `C[C@@H](NC(=O)c1cc(C(=O)N[C@@H](Cc2ccccc2)[C@H](O)CNC2CC2)cc(N(C)S(C)(=O)=O)c1)c1ccccc1` [BACE inhibitor IV], the IC50 with HEK293-APPNFEV cells was 29 nM. In addition, the cellular toxicity entry in data set [2] was “do not exhibit significant cellular toxicity”.
